Where a chain is given by its changes, count along the chain named.
Tests used:
[1] = tested on: choroidal neovascularization (CNV); assay: Laser-induced CNV model, intravitreal injection: CNV regression and vascular leakage; assay type: in vivo, mice; details: 5 μg intravitreal at 7 days
Description: 2C8H11 antibody was tested for its ability to inhibit choroidal neovascularization (CNV), the hallmark of wet age-related macular degeneration (AMD) using laser-induced CNV model. After dilation of pupils with 5 mg/ml phenylephrine and 5 mg/ml tropicamide eye drops (Santen Pharmaceutical) and instillation of 0.5% proparacaine hydrochloride eye drops (Alcon) for topical anesthesia, laser photocoagulator (Lumenis Inc.) with a slit lamp delivery system was used with a glass coverslip as a contact lens to visualize the retina. Sufficient laser energy (532 nm wavelength, 250 mW power, 100 ms duration, 50 μm spot size) was delivered in 4 locations for each eye (the 3, 6, 9 and 12 o'clock positions of the posterior pole). Only burns that produced a bubble at the time of laser photocoagulation, indicating the rupture of the Bruch's membrane, were included in this study. Spots containing hemorrhage at the laser site were excluded from the analysis. To recapitulate a clinical situation, 2C8H11 (5 μg) was administered intravitreally to the mice at 7 days after laser photocoagulation (FIG. 13A). As a control or as for comparison, Fc or VEGF-Trap (5 μg each) was administered in the same manner to the mice. To intravitreally administer indicated reagents, ˜1 μl (5 mg/ml) containing 5 μg of each reagent was injected into the vitreal cavity using the Nanoliter 2000 micro-injector (World Precision Instruments) fitted with a glass capillary pipette. CD31+CNV volumes of the retinal pigment epithelium (RPE)-choroid-sclera flat mounts were calculated using the MATLAB® Image Processing Toolbox™ (Math Works, a comprehensive set of reference-standard algorithms and workflow apps for image processing, analysis, visualization, and algorithm development) at 14 days after laser photocoagulation. Anti-CD31 antibody (1:200, Millipore®) was used for the detection of endothelial cells of CNV. […] Combined fluorescein angiography (FA) and indocyanine green angiography (ICGA) enabled us to measure vascular leakage at the neovessels around the laser injury site. Continuous-wave laser modules at 488 nm and 785 nm were used as excitation sources for fluorescein and ICG, respectively. A raster scanning pattern of excitation lasers was achieved by a scanner system consisting of a rotating polygonal mirror (MC-5; Lincoln Laser) and a galvanometer-based scanning mirror (6230H; Cambridge technology), and delivered to the back aperture of an imaging lens. A high numerical aperture (NA) objective lens (PlanApo λ, NA 0.75; Nikon) was used as the imaging lens to provide wide-field fundus fluorescence images. Fluorescence signals detected by photomultiplier tubes (R9110; Hamamatsu Photonics) were digitized by frame grabber and reconstructed to images with size of 512×512 pixels per frame in real time. To visualize late-phase (6 min) FA and ICGA images utilizing the angiography system, 10 mg of fluorescein sodium (Alcon) and 0.15 mg of ICG (Daiichi Pharmaceutical) were administered intraperitoneally and intravenously, respectively. The imaging procedure was performed under systemic anesthesia and pupil dilation to improve the quality of images. Leaky areas from CNV were calculated as the total measured hyperfluorescent areas in FA images divided by the total measured CNV areas in ICGA images using a Java-based imaging software (ImajeJ; National Institutes of Health). […] Thus, the magnitude of the suppression of CNV and vascular leakage was quantitatively indistinguishable between VEGF-Trap and 2C8H11 in the mouse model of laser-induced CNV.

[2] = tested on: choroidal neovascularization (CNV) / choriocapillaris; assay: Laser-induced CNV model, OCTA: CNV volume and choriocapillary regeneration (avascular space); assay type: in vivo, mice; details: for increased avascular space: 5 μg intravitreal at 7 days
Description: To determine the effect of 2C8H11 in CNV regression and choriocapillary regeneration after establishment of CNV, Fc, VEGF-Trap, control antibody or 2C8H11 (5 μg each) was given intravitreally to the mice by the Nanoliter 2000 micro-injector (World Precision Instruments) at 7 days after laser photocoagulation. Intra-vital optical coherence tomography angiography (OCTA) was performed at 6, 14, 21, and 35 days after laser photocoagulation (FIG. 14A). The retinochoroidal layers were imaged using a prototype high-speed swept-source optical coherence tomography (OCT) system, utilizing a custom ring cavity wavelength-swept laser centered at 1048 nm with an A-scan rate of 230 kHz. OCT images were collected in a 1.7 mm×1.7 mm field of view within the retino-choroidal layer to monitor regeneration of choroidal vasculatures at the site of laser photocoagulation after intravitreal injection of reagents. […] Then, by using automatic layer flattening and segmentation algorithms, cross-sectional OCT angiograms were flattened to RPE, and en face OCT angiograms were generated by separate projection of each flattened cross-sectional OCT angiogram in three depth ranges: inner retinal, outer retinal and choroidal layers. The outer plexiform layer and Bruch's membrane were defined as the boundaries separating inner retinal, outer retinal, and choroidal layers. The density of retina and choroid vessel was automatically calculated as the proportion of measured area occupied by flowing blood vessels defined as pixels having decorrelation values above the threshold level. Avascular pixels were detected from the en face OCT angiogram representing choroidal layer by means of the image processing toolbox of MATLAB® (Math Works). Then the total volume of the avascular space surrounding the laser injury site was calculated by summing the number of avascular pixels multiplied by the volume of one pixel. In order to analyze the changing complexion of avascular space volume, serially measured values in each eye were transformed into percentage change from baseline value. […] Overall, these findings indicate that both 2C8H11 and […] promotes regeneration of the choriocapillaris, while VEGF-Trap leads to choriocapillary regression in the laser-induced CNV model.

[3] = tested on: Tie2 receptor clustering / FOXO1 translocation in HUVECs; assay: Tie2 clustering and FOXO1 translocation in HUVECs (immunofluorescence); assay type: cell-based, human; details: HUVECs; 30 min; compared to serum-starved control
Description: Tie2 clustering at cell-cell junction area and FOXO1 translocation from nucleus to cytosol by anti-Ang2 antibodies were examined in HUVECs by immunofluorescence. Specifically, HUVECs were seeded on 8 well slide chamber (Lab-Tek™ II) and maintained in EGM-2 medium for 2-3 days. At 100% confluence, the cells were serum starved with EBM-2 medium for 4 hrs and then treated with 1 μg/ml anti-Ang2 antibodies together with 1 μg/ml of hAng2 for 30 min. Thereafter, the cells were fixed with 4% formaldehyde in PBS at room temperature (RT) for 10 min, permeabilized with 0.1% TRITON™ X-100 (non-ionic polyoxyethylene surfactant) in PBS, blocked with 1% BSA in PBS at RT for 60 min, and incubated with primary antibodies at RT for 1 hr. The primary antibodies for hTie2, FOXO1, and Human Fc were used. The cells were then incubated with secondary antibodies (Invitrogen) in the dark at RT for 1 hr and mounted with VECTASHIELD® mounting medium with DAPI (Vector Labs, antifade mounting media optimized for immunofluorescence applications). Images were taken with a laser scanning confocal microscope (LSM880, Carl Zeiss).
2C8H11-induced Tie2 clustering and FOXO1 translocation was examined in a time-course study (from 10 min to 240 min). […] 6-4: Inhibition of Vascular Permeability by Humanized Anti-Ang2 Antibodies

hAng2 = target: T1, hAng2 (Homo sapiens, UniProt O15123); assay: OCTET affinity of humanized anti-Ang2 antibodies against hAng2; assay type: binding; details: humanized 4B9 antibodies (IgG1) fixed on AR2G biosensor; hAng2 50-0 nM
T1 sequence (O15123 19-496): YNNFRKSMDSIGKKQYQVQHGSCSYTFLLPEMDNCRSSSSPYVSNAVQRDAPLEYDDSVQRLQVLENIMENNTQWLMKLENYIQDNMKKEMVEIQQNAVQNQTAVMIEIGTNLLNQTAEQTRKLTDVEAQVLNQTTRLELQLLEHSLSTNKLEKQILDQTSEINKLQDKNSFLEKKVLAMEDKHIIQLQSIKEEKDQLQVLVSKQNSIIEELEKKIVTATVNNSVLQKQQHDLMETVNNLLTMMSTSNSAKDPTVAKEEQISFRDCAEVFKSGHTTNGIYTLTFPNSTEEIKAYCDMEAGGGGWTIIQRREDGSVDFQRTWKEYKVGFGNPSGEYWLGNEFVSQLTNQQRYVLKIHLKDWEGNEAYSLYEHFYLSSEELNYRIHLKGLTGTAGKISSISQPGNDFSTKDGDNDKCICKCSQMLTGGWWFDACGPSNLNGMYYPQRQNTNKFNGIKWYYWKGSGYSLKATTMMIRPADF

In the case of “VEGF-Trap: VEGF-Trap, comparison agent given intravitreally, 5 μg [reference compound]”, the “vascular leakage suppression compared with Fc” value ([1]; FA/ICGA, 14 days after laser photocoagulation) is reported as 37.0%, the “CNV regression compared with Fc (CD31+ CNV volume)” value ([1]; measured 14 days after laser photocoagulation) is reported as 64.4% and the “vascular leakage reduction between 6 and 14 days after laser photocoagulation” value ([1]; within-group) is reported as 45.6%. For the same molecule, the “CNV volume in outer retinas (OCTA)” value ([2]; 5 μg intravitreal at 7 days after laser photocoagulation) was “markedly reduced CNV volume”, the increased avascular space ([2]; D14) was 11.4% and the increased avascular space ([2]; D21) was 16.0%. The increased avascular space ([2]; D35) was 18.1%.

B1: Ang2: full-length human angiopoietin-2 protein (R&D Systems), Tie2 ligand, SEQ ID NO: 1 (protein)
chain: MWQIVFFTLSCDLVLAAAYNNFRKSMDSIGKKQYQVQHGSCSYTFLLPEMDNCRSSSSPYVSNAVQRDAPLEYDDSVQRLQVLENIMENNTQWLMKLENYIQDNMKKEMVEIQQNAVQNQTAVMIEIGTNLLNQTAEQTRKLTDVEAQVLNQTTRLELQLLEHSLSTNKLEKQILDQTSEINKLQDKNSFLEKKVLAMEDKHIIQLQSIKEEKDQLQVLVSKQNSIIEELEKKIVTATVNNSVLQKQQHDLMETVNNLLTMMSTSNSAKDPTVAKEEQISFRDCAEVFKSGHTTNGIYTLTFPNSTEEIKAYCDMEAGGGGWTIIQRREDGSVDFQRTWKEYKVGFGNPSGEYWLGNEFVSQLTNQQRYVLKIHLKDWEGNEAYSLYEHFYLSSEELNYRIHLKGLTGTAGKISSISQPGNDFSTKDGDNDKCICKCSQMLTGGWWFDACGPSNLNGMYYPQRQNTNKFNGIKWYYWKGSGYSLKATTMMIRPADF
modifications: Human Angiopoietin-2 full-length
With B1 the “FOXO1 translocation from nucleus to cytosol” value [3] was “negligibly induced”.

B2: 4B9H21: humanized anti-Ang2 human IgG1 antibody from mouse 4B9; VH SEQ ID NO: 47, VL SEQ ID NO: 48 (antibody, V domains shown)
VH: QVQLVESGGGLVKPGGSLRLSCAASGFTFSDYYMYWVRQAPGKGLEWVSTISVGGSFTYYPDSVKGRFTISRDNAKNSLYLQMNSLRAEDTAVYYCARDWGLRPWFVYWGQGTLVTVSS
VL: DIQMTQSPSSLSASVGDRVTITCKASQDVSTAVAWYQQKPGKAPKLLIYWASTRHTGVPSRFSGSGSGTDFTLTISSLQPEDFATYYCQQHYSTPPTFGQGTKVEIK
modifications: human IgG1 constant regions; VH; VL
In the case of B2, the “Kdis” value (hAng2) is reported as 8.94e-06 s⁻¹ and the “Kon” value (hAng2) is reported as 73700 M⁻¹ s⁻¹.

B3: 4B9H31: humanized anti-Ang2 human IgG1 antibody from mouse 4B9; VH SEQ ID NO: 51, VL SEQ ID NO: 52 (antibody, V domains shown)
VH: B2 VH with S49A
VL: B2 VL
modifications: human IgG1 constant regions; VH; VL
For B3, the “Kdis” value (hAng2) was 1.56e-05 s⁻¹ and the “Kon” value (hAng2) was 93900 M⁻¹ s⁻¹.

— patent US12331106B2, “Anti-angiopoietin-2 antibodies that induce Tie2 activation” (Institute for Basic Science, priority 2018, dated 2025)
